Where no end group is shown, it is not given here.
Key:
[1] = Peptide stability in rat serum by HPLC; assay type: in vitro ADME; settings: 10 mg/mL in rat serum, 37 °C, 200 rpm, 24 h, HPLC peak area 220 nm, repeated three times; read-out: peptide remaining after 24 h of co-incubation with rat serum
Method: Antimicrobial peptides were dissolved in water or rat serum with a concentration of 10 mg/mL. The solution was incubated at 37 °C, 200 rpm for different time periods, and diluted 50 times for the HPLC analysis. In water, the incubation time was 0 h and 48 h. In rat serum, the incubation time was 0, 2, 4, 7, 12, 24 or 48 h. Each incubation condition was repeated three times. HPLC was conducted on a Waters HPLC system, which consisted of a 2996 photodiode array detector, a 2695 separation module and a temperature control column oven. Column: Sinochrom ODS-BP, 5 μm, 4.6 × 250 mm (Dalian Elite Analytical Instruments Co., Ltd., Dalian, China). Mobile phase: A: 100% ACN + 0.1% TFA; B: 100% Water + 0.1% TFA. Gradient elution: 0–20 min, 95% B–100% A; 20–25 min, 100% A. Detection wavelength: 220 nm. Flow rate: 1 mL/min. Sample volume: 50 μL (0.2 mg/mL).

[2] = system: Candida glabrata (C. glabrata, ATCCMYA-2950); assay type: cell-based; settings: 1 × 10^6 CFU/mL, PDB, 12 h, peptide 0-20 μM, absorbance at 600 nm, n = 5
Source text: (§1) Pseudomonas aeruginosa (P. aeruginosa, ATCC27853), Methicillin-Resistant Staphylococcus aureus (MRSA, 2104270609, clinically isolated strain), Escherichia coli (E. coli, ATCC25922), Klebsiella pneumoniae (K. pneumoniae, ATCC700603), Enterococcus faecalis (E. faecalis, ATCC29212), Candida krusei (C. krusei, ATCC6258), Candida albicans (C. albicans, ATCC90028), and Candida glabrata (C. glabrata, ATCCMYA-2950) were obtained from the First Affiliated Hospital of Xi’an Jiaotong University. Bacterial strains were cultured in MHA or MHB. Fungal strains were cultured in PDA or PDB.
(§2) Strains were incubated in MHB or PDB. After growing for 12–16 h at 37 °C, 200 rpm, 100 μL of 1 × 10^6 CFU/mL of the strains was seeded into 96-well plates and incubated with fresh culture medium containing various antimicrobial peptides (peptide concentration: 0, 0.5, 1.0, 2.0, 3.0, 5.0, 10, 15 or 20 μM) for 12 h. Each concentration was repeated five times. Absorbance at 600 nm was measured using the Multilabel Reader Varioskan Flash (Thermo Fisher). […] (1)

[3] = system: Candida albicans (C. albicans, ATCC90028); assay type: cell-based; settings: 1 × 10^6 CFU/mL, PDB, 12 h, peptide 0-20 μM, absorbance at 600 nm, n = 5
Source text: as §1, §2

[4] = system: Methicillin-Resistant Staphylococcus aureus (MRSA, 2104270609, clinically isolated strain); assay type: cell-based; settings: 1 × 10^6 CFU/mL, MHB, 12 h, peptide 0-20 μM, absorbance at 600 nm, n = 5
Source text: as §1, §2

[5] = system: Escherichia coli (E. coli, ATCC25922); assay type: cell-based; settings: 1 × 10^6 CFU/mL, MHB, 12 h, peptide 0-20 μM, absorbance at 600 nm, n = 5
Source text: as §1, §2

[6] = system: Pseudomonas aeruginosa (P. aeruginosa, ATCC27853); assay type: cell-based; settings: 1 × 10^6 CFU/mL, MHB, 12 h, peptide 0-20 μM, absorbance at 600 nm, n = 5
Source text: as §1, §2

[7] = system: Klebsiella pneumoniae (K. pneumoniae, ATCC700603); assay type: cell-based; settings: 1 × 10^6 CFU/mL, MHB, 12 h, peptide 0-20 μM, absorbance at 600 nm, n = 5
Source text: as §1, §2

[8] = system: Rat pulmonary artery smooth muscle cells (RPASMCs)
Method: (§3) Rat pulmonary artery smooth muscle cells (RPASMCs, primary cells separated by our laboratory) and human keratinocytes cells (HaCaT cells, Mingjing Biology, Shanghai, China) were cultured in high-glucose Dulbecco’s Modified Eagle Medium (DMEM), supplemented with 10% fetal bovine serum (FBS). Human umbilical vein endothelial cells (HUVECs, BeNa Culture Collection, Kunshan City, China) were cultured in the MCDB131 medium supplemented with 20% FBS and growth factor additives. Human embryonic kidney cells (293, Procell Life Science & Technology Co., Ltd., Wuhan, China) were cultured in minimum Eagle’s medium (MEM) supplemented with 10% FBS. All cells were cultured at 37 °C, with 5% CO2. All animals used in this study were supplied by the Medical Animal Test Center of Xi’an Jiaotong University and study protocols were approved by the Institutional Animal Care and Use Committee of the Ethics Committee of Health Science Center, Xi’an Jiaotong University (Ethical approval code: 2017-609).
(§4) Cells were inoculated in 96-well plates at 5 × 10^3 cells/well and cultured at 37 °C under 5% CO2. The supernatant was removed, and the cells were washed three times with PBS. Next, 100 μL of fresh culture medium containing different antimicrobial peptides was added (peptide concentration: 0, 1.0, 2.0, 5.0, 10, 25, 50 and 100 μM). Each concentration was repeated five times. Then, 10 μL of CCK-8 reagent was added 48 h later, followed by another two hours of incubation. The absorbance at 450 nm was measured using the same Multilabel Reader. Cellular growth viability was calculated using the following equation:Viability (%) = (mean absorbance value of treatment group − mean absorbance value of blank group group)/(mean absorbance value of control group − mean absorbance value of blank group) × 100. (2)

[9] = system: human keratinocytes cells (HaCaT cells)
Method: as §3, §4

[10] = system: Human umbilical vein endothelial cells (HUVECs)
Method: as §3, §4

[11] = system: Human embryonic kidney cells (293)
Method: as §3, §4

[12] = system: Kunming mice; settings: mouse, in vivo, iv
Method: Forty healthy male Kunming mice weighing ~25 g (5–6 weeks old) were injected intravenously with 100 μL of GK-19 with concentrations of 5 μmol/kg (n = 15) or 25 μmol/kg (n = 15). Mice blood samples (n = 5, per group and per time point) were collected from the mice’s eyeballs on days 1, 3 and 7 after injection for renal function test and liver function test. Meanwhile, major organs including lungs, heart, kidneys, liver and spleen were also harvested for hematoxylin and eosin staining on days 1, 3 and 7 after injection. To monitor the body weight changes in mice after injection of GK-19, five healthy male Kunming mice weighing ~25 g were injected intravenously with 100 μL of GK-19 with concentrations of 25 μmol/kg. Mice weights were recorded daily for seven days.
The hematoxylin and eosin staining in this study was carried out by Servicebio (Wuhan, China). Briefly, the obtained skin tissues were soaked in 4% paraformaldehyde solution (Beyotime, China) and fixed for more than 24 h. Then, they were dehydrated and embedded with paraffin, and tissue sections having thicknesses of 4 μm were prepared. After deparaffinization and rehydration, hematoxylin and eosin staining was performed.

GFLFKLIPKAIKKLISKFK [GK-19]
remaining at 24 h, 10 mg/mL [1]: > 50% | Minimum inhibitory concentration (MIC), C. glabrata [2]: 10 µM | Minimum inhibitory concentration (MIC), C. albicans [3]: 10 µM | Minimum inhibitory concentration (MIC), MRSA [4]: 5 µM | Minimum inhibitory concentration (MIC), E. coli [5]: 3 µM | Minimum inhibitory concentration (MIC), P. aeruginosa [6]: 5 µM | Minimum inhibitory concentration (MIC), K. pneumoniae [7]: 5 µM | cytotoxicity at the effective antimicrobial concentration, RPASMCs [8]: almost no apoptotic cells | cell viability, RPASMCs ([8]; 100 µM): less than 20% | cytotoxicity at the effective antimicrobial concentration, HaCaT [9]: almost no apoptotic cells | cells surviving, HaCaT ([9]; 48 h, 100 μM): more than 42% | cytotoxicity at the effective antimicrobial concentration, HUVECs [10]: almost no apoptotic cells | cell viability, HUVECs ([10]; 100 µM): less than 20% | cytotoxicity at the effective antimicrobial concentration, 293 cells [11]: almost no apoptotic cells | cell viability, 293 cells ([11]; 100 µM): less than 20% | body weight change [12]: gradual gain in body weight | histology of major organs (heart, liver, spleen, lungs, kidneys) [12]: no observable tissue damage, necrosis, or inflammation | liver and renal function tests [12]: no difference from that in healthy mice
